EP3222276B1, “PHARMACEUTICAL COMPOSITION FOR TREATING CANCER AND BIOMARKER FOR DRUG SCREENING” (National Defense Medical Center, priority 2014, dated 2016)

Legend:
pDAPK^S308 = test: Western blot of DAPK S308 phosphorylation in ACHN cells; type: cell-based, Human; conditions: various concentrations, only when provided 30 minutes prior to the combination drugs
Procedure: (§1) The combination therapy of sorafenib and GW5074 induces cell necrosis through the dephosphorylation of the death-associated DAPK at serine 308 followed by dissociation from proto-oncogene c-Raf. Cells were cultured as described in example 1, washed with phosphate buffered saline (PBS), and stained with the annexin V-FITC and propidium iodide (PI) for 15 minutes. The presence of fluorescent Annexin V as well as propidium iodide (PI) was detected by flow cytometry so as to determine whether the cell death is caused by apoptosis or necrosis. The expression of c-Raf and DAPK as well as the phosphorylation level of DAPK were examined by Western blot and immunoprecipitation using antibodies. Anti-DAPK antibodies or non-immune rabbit IgG (IP: immunoglobulin) were included as negative controls, and cell survival was measured by SRB assay, as shown In example 1. In this experiment, ACHN cells were treated separately with DMSO (as a control group), 5 µM sorafenib, 10 µM GW5074, or the combination therapy of 5 µM sorafenib and 10 µM GW5074 for 24 hours.

ACHN cells [1] = test: Annexin V-FITC / propidium iodide flow cytometry for apoptosis or necrosis; type: cell-based, Human; conditions: 5 µM sorafenib, 10 µM GW5074 or both; 24 hours; n=4
Procedure: as §1

ACHN cells [2] = test: ACHN xenograft in immunodeficient mice, tumor volume; type: in vivo; conditions: 5 mg/kg sorafenib oral, 10 mg/kg GW5074 s.c., alone or combined; once a day for three weeks; n=8
Procedure: Six-week old immnunodeficient male mice (BALB/cAnN.Cg-Foxn1^nu/CrlNarl) with an average weight of 20 grams were xenografted with 1x10^7 ACHN cells to the right by […]. The mice were maintained in a specific pathogen-free (SPF) environment. The size of tumor was measured using a digital caliper twice a week and tumor volume was calculated by the equation of length^∗width^∗height^∗0.5. […] A total of four groups were included in the experiment: a control group which received only vehicle (DMSO), […], 25 mg/kg GW5074, […], respectively, with 8 mice in each group.

Luc-ACHN-LL cells = test: Orthotopic metastasis model of renal carcinoma, IVIS photon signal and survival; type: in vivo, mice; conditions: for death within, following injection of cancer cells: 10 mg/kg sorafenib alone or 25 mg/kg GW5074 alone
Procedure: To simulate clinical phenomenon, we established an orthotopic spontaneous animal model for studying metastasis of renal carcinoma. First, ACHN cells were transfected with the luciferase gene and the resultamt Luc-ACHN transfectants (stable transfectants which express the luciferase) with different expression levels were then selected for in vivo culture in mice by subcutaneous injection. Six-week old and shaved mice were subcutaneously injected with 1×10^7 Luc-ACHN cells In 0.1 ml PBS. Two months after the injection, the mice were sacrificed and their kidneys, livers, regional lymph nodes as well as other organs were collected for assessing tumor cells that were potentially metastatic, which was confirmed by hematoxylin-eosin (H&E) staining. Tumor cell lines that are highly metastatic were dissected in 1 ml PBS into small pieces aseptically and then cultured in MEM media containing 10% FBS (fetal bovine serum) and 1% penicillin/streptomycin following centrifugation. A few days later, monoclonal cell lines were first treated with the trypsin to dissociate the cells and then cultured in vitro. The cells obtained from liver tumor tissues were named ACHN-L. The metastatic potential of various monoclonal cell lines collected from different organs was further analyzed by xenografting these tumor cells to the left kidneys of mice. The xenografted mice were sacrificed and examined 8 weeks after the injection of tumor cells. The tumor growth observed in each organ was investigated through visual examination and histology procedures. The metastatic cells found in the liver were dissected into small pieces aseptically and cultured in vitro. The cells obtained from liver tumor tissues were named ACHN-L (subcutaneous injection) cells and the cells collected from the metastatic lesions after injection of ACHN-L cells to the left kidneys were called ACHN-LL cells. The same procedure using orthotopic xenograft of ACHN-LL cells and liver metastatic cells was repeated twice to select for highly metastatic tumors. The cancer cell line (Luc-ACHN-LL), which is highly metastatic and causes high mortality, was selected. Immunodeficient male mice was injected with 3×10^5 Luc-ACHN-LL cells in 50 µL PBS at the right renal capsule. The in vivo luciferase activity was examined every day for up to three weeks so as to assure that there were no leakage of cancer cells at the kidneys immediately after the injection and to monitor the metastasis of these cancer cells. Two to five minutes before utilizing the IVIS Xenogene system, 75 mg/kg D-Luciferin (Xenogen) in PBS was injected to the retro-orbital sinus of each mouse. […]

ACHN cells [3] = test: SRB assay of cell survival / growth inhibition; type: cell-based, Human; conditions: 5 µM sorafenib or 10 µM GW5074 alone, or both combined (GW5074 30 minutes before sorafenib); 24 hours
Procedure: Human renal carcinoma (ACHN) cells were cultured in Eagle MEM (Minimum Essential Medium) with 10% FBS (Fetal Bovine Serum) and 1% penicillin/streptomycin. Sulforhodamine B (SRB) is a negative […] with a sulfonic acid group and binds to basic amino acids of intracellular proteins in weak acidic conditions. The SRB […] was extracted from cells using weak alkaline solution and then subjected to absorbance measurement. The amount of intracellular proteins, which is an indicator for cell survival, can be calculated from the amount of SRB.

SMILES	inhibition of dephosphorylation of pDAPK^S308 and growth of ACHN cells (pDAPK^S308)	average cell necrosis rate (ACHN cells [1]) [%]	inhibition effect on xenografted tumor growth (tumor volume) (ACHN cells [2])	death within, following injection of cancer cells (Luc-ACHN-LL cells) [weeks]	body weight (Luc-ACHN-LL cells; high-dose 60 mg/kg sorafenib)	death within (Luc-ACHN-LL cells; high-dose 60 mg/kg sorafenib) [weeks]	growth inhibition of cells (ACHN cells [3])
C=C1[C@@H](O)[C@@H]2O[C@]3(CC[C@H](/C=C/[C@@H](C)[C@@H]4CC(C)=C[C@@]5(O[C@H](C[C@@](C)(O)C(=O)O)CC[C@H]5O)O4)O3)CC[C@H]2O[C@@H]1[C@@H](O)C[C@H](C)[C@H]1O[C@@]2(CCCCO2)CC[C@H]1C [Okadaic acid]	effective	–	–	–	–	–	–
CNC(=O)c1cc(Oc2ccc(NC(=O)Nc3ccc(Cl)c(C(F)(F)F)c3)cc2)ccn1 [sorafenib]	–	0.77	nearly no inhibition effect	≤ 8	loss of weight	≤ 10	no growth inhibition
O=C1Nc2ccc(I)cc2C1=Cc1cc(Br)c(O)c(Br)c1 [GW5074, 3-(3,5-Dibromo-4-hydroxy-benzylidene)-5-iodo-1,3-dihydro-indol-2-one]	–	1.35	nearly no inhibition effect	≤ 5	–	–	no growth inhibition
